We go through 14 molecules from patent EP0500426A1, “2,6-Dimethyl-4-(4'-hydroxy-3',5'-di-t-butylphenyl)-1,4-dihydropyridine derivatives, process for their preparation and their use as free radical scavengers” (Instituto de Investigacion Y Desarrollo Quimico-Biologico …, priority 1991, dated 1992).

For assay [1], the system named is radicaux libres. As to the kind of experiment: Free radical scavenger activity (test not specified).
Assay [2] deals with canaux calciques. Particulars: see Spanish patent n°531.033; cited from earlier work.
Assay [3] has as its system membrane hépatique du rat. As to the kind of experiment: Free radical scavenging in rat liver membranes: lipid peroxidation induced by Fe++/ascorbic acid, thiobarbituric acid-reactive substances. Conditions: 45 minutes at 37°C, substances reacting with ATB, read-out: CI50 (the source's name). It is filed as biochemical. Here is the method:
Les composés de la présente invention ont fait l'objet d'un essai de contrôle de leur aptitude à capter les radicaux libres engendrés par la membrane hépatique du rat stimulée par du Fe++/acide ascorbique (système connu pour induire une formation de radicaux libres).
1.- Activité de captage des radicaux libres dans la membrane hépatique du rat.
On a préparé des homogènats de foie de rat (1/10 p/v) dans du Ringer-Tris (50mM)-saccharose ([…]) de pH 7,4, après sacrifice de rats Wistar au moyen de CO2. On a découpé les foies en petits morceaux (1 à 2 mm) et on les a homogénéisés à 0°C dans un homogénéisateur Polytron. On a centrifugé les homogénats à 1000 x g pendant 10 minutes à 4°C et rejeté le culot. On a centrifugé le surnageant à 10 000 x g pendant 20 minutes et recueilli le culot, puis on l'a remis en suspension, dans le rapport 1/10, dans du Ringer-Tris (50 mM). On a utilisé des échantillons de la préparation immédiatement et on en a conservé à -20°C. […] Après 45 minutes à 37°C, on a ajouté 1 ml d'une solution contenant 0,5% d'acide thiobarbiturique (ATB) dans de l'acide trichloroacétique (ATC) à 20% dans chaque tube et après 15 minutes d'incubation à 95°C, on a déterminé par spectrophotométrie les substances réagissant avec l' A TB. On a réalisé pour toutes les expériences des témoins appropriés exempts du médicament.

The subject of assay [4] is neutrophiles humains. Nature of the assay: Free radical production by FMLPA-stimulated human neutrophils (cytochrome C reduction). Type of assay: cell-based. Conditions: Neutrophil, reduced cytochrome C at 550 nm, read-out: CI50 (the source's name). From the text: (§1) Les composés de la présente invention ont fait l'objet d'un essai de contrôle de leur aptitude à capter les radicaux libres engendrés par la membrane hépatique du rat stimulée par du Fe++/acide ascorbique (système connu pour induire une formation de radicaux libres). Les composés les plus actifs ont fait ensuite l'objet d'essais de contrôle de leur aptitude à inhiber la formation des radicaux libres par les neutrophiles humains stimulés par la N-formyl-L-méthionyl-L-leucyl-L-phénylalanine et à protéger le tissu hépatique, entretenu en culture, contre les lésions par ischémie/reperfusion.
2.- Dosage des radicaux libres dans les polymorphonucléaires.
On a isolé des neutrophiles humains chez des donneurs volontaires bien portants par centrifugation sur gradient dans du Ficol Hypaque (Pharmacia). On a mélangé 100 µl de suspension de cellules (nombre final 500 000 cellules) avec 700 µl de solution physiologique tamponnée au phosphate et 50 µl des composés expérimentaux en solution dans du DMSO. On a utilisé comme témoin positif 25 µl d'une solution à 1 mg par ml de superoxyde dismutase dans du DMSO (à savoir 25 µg de SOD). On a préincubé les tubes à 37°C pendant 10 minutes sous agitation lente.
On a stimulé les neutrophiles par addition de 100 µl de cytochrome C type VI (1 mM) (Sigma) dans de la solution physiologique tamponnée au phosphate, de 50 µl de N-formyl-L-méthionyl-L-leucyl-L-phénylalanine (FMPLA) (10 µM) (Sigma F 3506) et par incubation pendant 5 minutes à 37°C. Après refroidissement à 0°C pour arrêter la réaction, on a centrifugé les tubes à 8000 xg et on a déterminé par spectrophotométrie à 550 nm le cytochrome C réduit, en utilisant des tubes contenant du SOD comme témoins.

The subject of assay [5] is tissu hépatique. As to the kind of experiment: Ischemia/reperfusion in short-term organ culture of rat liver, malonaldehyde by thiobarbituric acid reaction. It is filed as cell-based, rats Wistar. Conditions: 1 h, concentration inhibiting malonaldehyde production by 50%, 60 minutes ischemic anoxia, 60 minutes reoxygenation, read-out: CI50 (the source's name).
From the text: as §1
3.- Ischémie/reperfusion dans une culture d'organe à court terme.
Pour ces études, on a prélevé des échantillons de tissu dans des groupes de 10 rats Wistar mâles anesthésiés au pentobarbital sodique (60 mg par kg, i.p.). On a isolé les foies et on les a divisés en cinq échantillons d'environ 0,4 g qu'on a pesés et transférés dans des fioles d'Erlenmeyer de 50 ml bouchées contenant de la solution de Tris-Ringer saturée d'argon (anoxique).
On a purgé à l'argon les fioles d'Erlenmeyer de 50 ml contenant les échantillons du tissu et 3,9 ml de tampon de Tris-Ringer traité à l'argon, on les a rebouchées et on les a conservées au bain-marie à 37°C sans agitation pendant 50 minutes pour provoquer l'ischémie. La subdivision du tissu et l'agitation ont été évitées à ce stade pour réduire au minimum la diffusion des métabolites depuis le tissu jusque dans le milieu, qui n'aurait pu se faire au cours d'une ischémie in vivo.
Division du tissu et addition du médicament.
Après 50 minutes d'ischémie, on a divisé les tissus avec des ciseaux d'ophtalmologie en fragments d'environ 1 mm de côté. Du fait que l'argon est plus dense que l'air, son déplacement hors de la fiole et son remplacement par l'oxygène sont restés minimaux pendant le découpage et l'addition ultérieure du médicament. Ensuite, on a ajouté 0,1 ml de tampon de Tris-Ringer contenant l'un des composés à évaluer ou de l'hydroxy- toluène butylé (HTB), pour arriver à la concentration finale souhaitée; on a sélectionné l'hydroxytoluène butylé du fait que c'est un antioxydant classique qui gêne la propagation en chaîne des radicaux. On a procédé à ces additions avec rapidité pour éviter d'introduire de l'oxygène. On a rebouché les fioles et on les a secouées modérément pour mélanger le tissu avec le médicament, puis on les a remises au bain-marie pendant 10 minutes pour la mise a l'équilibre avant la réoxygénation.
Après 60 minutes d'anoxie ischémique, on a réoxygéné les fioles par barbotage vif d'oxygène gazeux à 100% dans les échantillons pendant 1 minute et par purge de la phase gazeuse avec de l'oxygène (de l'argon remplaçant l'oxygène à ce stade dans les expériences témoins d'ischémie sans réoxygénation). […]

`CCOC(=O)C1=C(C)NC(C)=C(C(=O)OC)C1c1cc(OC)c(O)c(OC)c1` (centres unmarked): the “activité comme capteur de radicaux libres” value in assay [1] is “intéressante activité”. The “activité de blocage des canaux calciques” value in assay [2] was “pratiquement exempt”. Turning to `CCOC(=O)C1=C(C)NC(C)=C(C(=O)OC)C1c1cc(C(C)(C)C)c(O)c(C(C)(C)C)c1` (centres unmarked) [Exemple 1, 2,6-Diméthyl-4-(4'-hydroxy-3',5'-di-t-butylphényl)-1,4-dihydropyridine-3,5-dicarboxylatede méthyle et d'éthyle], the results for the IC50 in assay [3], in assay [4] and in assay [5] were 0.78 µM, 10.9 µM and 0.17 µM, respectively.

Regarding `CCOC(=O)C1=C(C)NC(C)=C(C(=O)OC(C)C)C1c1cc(C(C)(C)C)c(O)c(C(C)(C)C)c1` (centres unmarked) [Exemple 2, 2,6-diméthyl-4-(4'-hydroxy-3',5'-di-t-butylphényl)-1,4-dihydropyridine-3,5-dicarboxylate d'éthyle et d'isopropyle], the figures for the IC50 in assay [3], in assay [4] and in assay [5] were 0.29 µM, 10.2 µM and 0.2 µM, respectively.

Take `COC(=O)C1=C(C)NC(C)=C(C(=O)OC)C1c1cc(C(C)(C)C)c(O)c(C(C)(C)C)c1` [Exemple 3, 2,6-Diméthyl-4-(4'-hydroxy-3',5'-di-t-butylphényl)-1,4-dihydropyridine-3,5-dicarboxylatede diméthyle]: the IC50 in assay [3] stood at 1.25 µM. Still for that read-out and setting: the figure for `CCOC(=O)C1=C(C)NC(C)=C(C(=O)OCC2COC(C)(C)O2)C1c1cc(C(C)(C)C)c(O)c(C(C)(C)C)c1` (centres unmarked) [Exemple 4, 2,6-diméthyl-4-(4'-hydroxy-3',5'-di-t-butylphényl)-1,4-dihydropyridine-3,5-dicarboxylate d'éthyle etde (2,2-diméthyl-1,3-dioxolan-4-yl)méthyle] is 1.25 µM; for `CCOC(=O)C1=C(C)NC(C)=C(C(=O)OCC(O)CO)C1c1cc(C(C)(C)C)c(O)c(C(C)(C)C)c1` (centres unmarked) [Exemple 5, 2,6-diméthyl-4-(4'-hydroxy-3',5'-di-t-butyl-phényl)-1,4-dihydropyridine-3,5-dicarboxylate d'éthyle etde 2,3-dihydroxypropyle] it is 50 µM; for `CCOC(=O)C1=C(C)NC(C)=C(C(=O)OCCN(C)Cc2ccccc2)C1c1cc(C(C)(C)C)c(O)c(C(C)(C)C)c1` (centres unmarked) [Exemple 6, chlorhydratede 2,6-diméthyl-4-(4'-hydroxy-3',5'-di-t-butylphényl)-1,4-dihydropyridine-3,5-dicarboxylate d'éthyle etde 2-(N-méthyl-N-benzylamino)éthyle] it is 20 µM. Take `CCOC(=O)C1=C(C)NC(C)=C(C(=O)OCCNC)C1c1cc(C(C)(C)C)c(O)c(C(C)(C)C)c1` (centres unmarked) [Exemple 7, chlorhydratede 2,6-diméthyl-4-(4'-hydroxy-3',5'-di-t-butylphényl)-1,4-dihydropyridine-3,5-dicarboxylate d'éthyle etde 2-(méthylamino)éthyle]: the IC50 in assay [3] was determined as 2.5 µM.

Consider `CCOC(=O)C1=C(C)NC(C)=C(C(=O)OCc2ccccc2)C1c1cc(C(C)(C)C)c(O)c(C(C)(C)C)c1` (centres unmarked) [Exemple 8, 2,6-diméthyl-4-(4'-hydroxy-3',5'-di-t-butylphényl)-1,4-dihydropyridine-3,5-dicarboxylate d'éthyle etde benzyle], for which, in assay [3], the IC50 stood at 1 µM. Turning to `CCOC(=O)C1=C(C)NC(C)=C(C(=O)O)C1c1cc(C(C)(C)C)c(O)c(C(C)(C)C)c1` (centres unmarked) [Exemple 9, 2,6-diméthyl-4-(4'-hydroxy-3',5'-di-t-butylphényl)-5-carbéthoxy-3-carboxy-1,4-dihydropyridine], in assay [3], the IC50 turned out to be 2.5 µM.

In the case of `CCOC(=O)C1=C(C)NC(C)=C(C(=O)OCC(C)C)C1c1cc(C(C)(C)C)c(O)c(C(C)(C)C)c1` (centres unmarked) [Exemple 10, 2,6-diméthyl-4-(4'-hydroxy-3',5'-di-t-butylphényl)-1,4-dihydropyridine-3,5-dicarboxylate d'éthyle et d'isobutyle], the IC50 in assay [3] was determined as 0.37 µM; in assay [4], 10.5 µM; in assay [5] it was 0.2 µM.

Turning to `CC1=C(C(=O)OCC(C)C)C(c2cc(C(C)(C)C)c(O)c(C(C)(C)C)c2)C(C(=O)OCC(C)C)=C(C)N1` [Exemple 11, 2,6-diméthyl-4-(4'-hydroxy-3',5'-di-t-butylphényl)-1,4-dihydropyridine-3,5-dicarboxylatede diisobutyle], the IC50 in assay [3] turned out to be 1 µM. As to `Cc1cc(C(C)(C)C)c(O)c(C(C)(C)C)c1` [HTB, hydroxytoluène butylé, reference compound], the IC50 in assay [3] stood at 1.5 µM; in assay [4] it was 20 µM; in assay [5], 1.75 µM.

Take `Cc1c(C)c2c(c(C)c1O)CCC(C)(CCCC(C)CCCC(C)CCCC(C)C)O2` (stereo not drawn) [α-Tocophérol, reference compound]: the IC50 in assay [3] was 15 µM.
